Results as given in ChEMBL document CHEMBL2417406, “Exploring the orthosteric binding site of the γ-aminobutyric acid type A receptor using 4-(Piperidin-4-yl)-1-hydroxypyrazoles 3- or 5-imidazolyl substituted: design, synthesis, and pharmacological evaluation” (J Med Chem, 2013).

Tests used:
[1] = Displacement of [3H] muscimol from rat GABA A receptor
[2] = target: T1, GABA-A receptor; alpha-1/beta-2/gamma-2 (Homo sapiens, UniProt P14867+P18507+P47870); assay: Antagonist activity at human alpha1beta2gamma2S GABA-A receptor expressed in tsA201 cells assessed as inhibition of GABA-induced effect after 30 mins by FLIPR membrane potential blue assay; format: cell-based
T1 sequence (P14867 whole entry): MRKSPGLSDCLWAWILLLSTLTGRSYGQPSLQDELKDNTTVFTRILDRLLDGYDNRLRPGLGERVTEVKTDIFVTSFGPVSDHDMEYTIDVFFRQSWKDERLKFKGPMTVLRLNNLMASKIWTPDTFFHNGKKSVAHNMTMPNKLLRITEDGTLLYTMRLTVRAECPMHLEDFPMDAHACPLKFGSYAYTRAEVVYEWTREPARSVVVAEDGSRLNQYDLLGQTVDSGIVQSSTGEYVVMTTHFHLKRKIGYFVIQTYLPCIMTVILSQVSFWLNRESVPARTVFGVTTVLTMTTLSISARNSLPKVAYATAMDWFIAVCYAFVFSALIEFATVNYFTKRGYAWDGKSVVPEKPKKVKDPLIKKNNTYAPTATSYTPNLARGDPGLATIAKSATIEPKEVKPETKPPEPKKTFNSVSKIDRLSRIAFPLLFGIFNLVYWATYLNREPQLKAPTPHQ
T1 sequence (P47870 whole entry): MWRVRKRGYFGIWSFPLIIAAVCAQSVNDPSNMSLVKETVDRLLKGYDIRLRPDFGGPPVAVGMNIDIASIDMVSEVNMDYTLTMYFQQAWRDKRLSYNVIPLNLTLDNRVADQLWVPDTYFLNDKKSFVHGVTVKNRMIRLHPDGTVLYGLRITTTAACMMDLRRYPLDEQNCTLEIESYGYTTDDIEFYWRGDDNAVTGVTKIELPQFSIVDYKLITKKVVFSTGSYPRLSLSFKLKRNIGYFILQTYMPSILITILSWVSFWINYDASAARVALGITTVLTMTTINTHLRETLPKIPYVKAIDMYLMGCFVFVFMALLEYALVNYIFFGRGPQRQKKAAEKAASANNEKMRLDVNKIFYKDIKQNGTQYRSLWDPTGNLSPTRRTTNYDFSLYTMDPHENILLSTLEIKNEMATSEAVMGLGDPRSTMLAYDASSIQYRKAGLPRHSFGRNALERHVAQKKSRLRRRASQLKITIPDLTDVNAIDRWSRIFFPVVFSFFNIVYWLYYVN
T1 sequence (P18507 whole entry): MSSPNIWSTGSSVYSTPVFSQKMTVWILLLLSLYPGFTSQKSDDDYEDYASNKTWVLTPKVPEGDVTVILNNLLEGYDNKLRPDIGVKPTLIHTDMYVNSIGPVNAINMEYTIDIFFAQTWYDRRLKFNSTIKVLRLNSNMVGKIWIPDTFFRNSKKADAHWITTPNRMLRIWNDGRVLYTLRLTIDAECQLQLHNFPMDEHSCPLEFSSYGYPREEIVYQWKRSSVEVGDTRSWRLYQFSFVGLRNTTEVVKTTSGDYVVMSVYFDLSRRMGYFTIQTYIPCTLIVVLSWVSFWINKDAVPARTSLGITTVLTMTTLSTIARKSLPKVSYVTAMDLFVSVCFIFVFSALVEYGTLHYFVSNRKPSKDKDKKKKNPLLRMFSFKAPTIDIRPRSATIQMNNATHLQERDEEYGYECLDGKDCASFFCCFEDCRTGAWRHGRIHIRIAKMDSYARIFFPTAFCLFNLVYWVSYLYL

| SMILES | Ki [1] | pKi [1] | IC50 [2] |
| --- | --- | --- | --- |
| On1cc(C2CCNCC2)c(-c2cn(Cc3ccccc3)c(Cl)n2)n1 | 740 nM | 6.14 |  |
| On1ncc(C2CCNCC2)c1-c1c[nH]cn1 | 7500 nM | 5.14 |  |
| On1cc(C2CCNCC2)c(-c2cn(Cc3ccccc3)cn2)n1 | 750 nM | 6.13 |  |
| On1cc(C2CCNCC2)c(-c2cccc(-c3ccccc3)c2)n1 | 30 nM |  |  |
| COc1ccc(-c2ccc(=N)n(CCCC(=O)O)n2)cc1 [GABAZINE] | […] |  | 240 nM |
| On1cc(C2CCNCC2)cn1 | 10000 nM |  | > 500000 nM |
| On1cc(C2CCNCC2)c(-c2c[nH]cn2)n1 | 5100 nM | 5.31 | 30000 nM |
| On1ncc(C2CCNCC2)c1-c1cn(Cc2ccccc2)c(Cl)n1 | 830 nM | 6.09 |  |
| On1ncc(C2CCNCC2)c1-c1c[nH]c(-c2ccccc2)n1 | 14 nM | 7.86 | 690 nM |
| On1ncc(C2CCNCC2)c1-c1cn(Cc2ccccc2)c(-c2ccccc2)n1 | 230 nM | 6.64 | 780 nM |
| On1cc(C2CCNCC2)c(-c2cn(Cc3ccccc3)c(-c3ccccc3)n2)n1 | 280 nM | 6.57 | 210 nM |
| On1cc(C2CCNCC2)c(-c2c[nH]c(-c3ccccc3)n2)n1 | 2500 nM | 5.61 | 9700 nM |
